Data set [1] is described as follows: Serum fluoxetine levels by liquid chromatography with fluorescence detection. The class given is in vivo, mouse. The note with it: Balb/cJ mice. The protocol:
Fluoxetine was a generous gift from Lilly (Indianapolis, Ind.), and was delivered ad libitum in the drinking water. Fluoxetine was dissolved in tap water and changed weekly. For initial strain comparison studies, daily drinking was measured and the concentration of fluoxetine solutions were adjusted to deliver 0, 5, or 10 mg/kg/day of fluoxetine to each strain. For subchronic and chronic studies in BALB/cJ mice, 80-mg/L, 160 mg/L, and 240 mg/L fluoxetine was given, and drinking was recorded throughout the study. Fluoxetine plasma levels were determined by liquid chromatography with fluorescence detection (Suckow et al., 1992) for chronically treated Balb/cJ mice. 5-methoxy-3(1,2,3,6)tetrahydropyridin-4-yl-1H-indole (RU24969) was obtained from Tocris Cookson (Ellisville, Mo.), dissolved in saline, and delivered i.p. (5 ml/kg) with 26 gauge needles. Both drugs were protected from light.

The subject of data set [2] is BALB/cJ mice. The experiment in a line: Open field test, chronic vs. subchronic fluoxetine. The format is in vivo, mouse. The protocol: (§1) For chronic fluoxetine studies in BALB/cJ mice, 60 male BALB/cJ mice were tested in the OF for 30 min on days 19 or 20 of chronic fluoxetine treatment. Mice were then pretested and tested in the modified FST on days 21 and 22, respectively. Animals were then allowed to adapt to being singly housed, and were trained for NIH on days 25-27. Home cage and novel cage testing occurred on days 28 and 29, respectively. Mice were then assessed for PPI on days 34 or 35.
(§2) Studies of subchronic fluoxetine were conducted using separate groups of 60 male BALB/cJ mice to prevent fluoxetine treatment from exceeding one week. One group was tested in the OF after one day of subchronic fluoxetine treatment. Mice were then pretested after 6 and tested after 7 days of subchronic fluoxetine treatment in the modified FST. A second group of BALB/cJ mice began fluoxetine treatment after being singly housed. They were then tested in the NIH test after 4 (home) and 5 (novel) days of subchronic fluoxetine treatment. A third group was tested for PPI after one or two days of subchronic fluoxetine treatment.
Open field test: Motor activity was quantified in four Plexiglas OF boxes 43 x 43 cm (MED Associates, Georgia, Vt.). Two sets of 16 pulse-modulated infrared photobeams were placed on opposite walls 2.5-cm apart to record x-y ambulatory movements. Activity chambers were computer interfaced for data sampling at 100-ms resolution. The computer defined grid lines that divided each OF into center and surround regions, with each of four lines being 11 cm from each wall. Dependent measures were the number of entries into the center, the distance traveled in the center, total time spent in the center, and distance traveled in the center divided by total distance traveled. Overall motor activity was quantified as the total distance traveled (cm).
Open field test: For Experiment 1, two-factor ANOVAs with fluoxetine as a between-subject factor and day as a within-subject factor were applied to five measures for each strain: time spent in the center, distance traveled in the center, center distance/total distance traveled, entries into the center, and total distance traveled. Main effects of fluoxetine or significant interactions of fluoxetine and day were resolved using post-hoc ANOVAs with adjusted p-values and/or Newman-Keuls post-hoc tests. Subchronic and chronic experiments in Balb/cJ mice were analyzed using one-way ANOVAs with fluoxetine as a between-subjects factor and Newman-Keuls post-hoc tests for the same variables. Because data deviated substantially from a normal distribution due to low activity levels of Balb/cJ mice, analyses were applied to log transformed data.
Remaining significant effects of fluoxetine indicate independence between measures of locomotor activity and center measures.

Data set [3] deals with BALB/cJ mice. The data set can be described thus: Modified forced swim test, chronic vs. subchronic fluoxetine. The format is in vivo, mouse. The protocol:
as §1, §2
Modified forced swim test: Mice were placed into 19 cm diameter plastic buckets which were 23 cm deep filled with 23°-25° C. water, and videotaped for six minutes. Only the last four minutes were scored for four measures: swimming, immobility, climbing, or other. The predominant behavior was recorded every 5 sec. For chronic and subchronic fluoxetine studies in BALB/cJ mice, mice were pre-exposed to the FST for 6 min 24 hours before test day to increase sensitivity for detecting antidepressant behavioral effects (Borsini et al., 1989).
Modified forced swim test: Two-factor ANOVAs with fluoxetine as a between-subjects factor and block (1 min intervals) as a within-subject factor were applied to three different measures: swimming, immobility, and climbing. Significant main effects of fluoxetine and interactions were resolved using post-hoc ANOVAs with adjusted p-values, and/or Newman-Keuls post-hoc tests.

The conditions of data set [4]: patients taking 20-80 mg/day Prozac; cited from earlier work.
In data set [5] the test system is BALB/cJ mice. Particulars: acute 10 mg/kg fluoxetine; cited from earlier work.
The next data set relates to animals. The note with it: animals without drug withdrawal or chronic stress; low dose fluoxetine; cited from earlier work.
[6] abbreviates: chronic 18 mg/kg/day vs controls.

Results on one compound are retold here after patent publication US20050186137A1, “Novelty-induced hypophagia-based assays for identifying agents to treat anxiety and depression” (priority 2003, published 2005).

SMILES strings stand for the structures. Read-outs that look alike come from different tables or passages of the source.

Regarding `CNCCC(Oc1ccc(C(F)(F)F)cc1)c1ccccc1` (centres unmarked) [fluoxetine], the Serum fluoxetine levels in data set [1] (chronic fluoxetine 10 mg/kg/day (80 mg/L drinking water)) stood at 170.3 ± 57.8 ng/mL; in data set [1] (chronic fluoxetine 18 mg/kg/day (160 mg/L drinking water)), 563.4 ± 118.4 ng/mL; in data set [1] (chronic fluoxetine 25 mg/kg/day (240 mg/L drinking water)), 1779.2 ± 364.9 ng/mL. Besides, the “log of center entries” value was “lower values than groups receiving 18 mg/kg/day and 25 mg/kg/day” in the data set with BALB/cJ mice [2] (chronic 10 mg/kg/day); “significantly higher values than controls” in the data set on BALB/cJ mice [2] (setting [6]). Besides, the “center entries, without logarithmic transformation” value in the data set on BALB/cJ mice [2] (setting [6]) is given as “made more center entries”. Besides, the “center/total distance, without logarithmic transformation” value in the data set on BALB/cJ mice [2] (setting [6]) is given as “trend for higher center/total distance values”. Further, the “log of center distance” value in the data set on BALB/cJ mice [2] (setting [6]) is listed as “significantly higher values than controls”. For the same compound, in the data set on BALB/cJ mice [2] (setting [6]), the “log of center distance/log total distance traveled” value is “significantly higher values than controls”. The “log of time in the center” value with BALB/cJ mice [2] (chronic fluoxetine) was “no significant effect of drug”. In the data set with BALB/cJ mice [2] (chronic fluoxetine 10, 18, 25 mg/kg/day, 30 min test), the “total locomotor activity (log transformed)” value is “did not alter total locomotor activity”. The “total locomotor activity, without logarithmic transformation” value in the data set on BALB/cJ mice [2] (chronic fluoxetine, all doses) was “remain unaffected by all doses of drug”. In addition, the “any measures in the OF” value in the data set on BALB/cJ mice [2] (subchronic (one day) fluoxetine, untransformed or log transformed) is listed as “no differences in any measures in the OF”. Besides, the “effect in the modified FST” value in the data set with BALB/cJ mice [3] (acute administration of 10 mg/kg/day in the drinking water, expected) is “no effect”. The climbing result in the data set with BALB/cJ mice [3] (chronic 25 mg/kg/day) was “increased climbing relative to all other doses”; with BALB/cJ mice [3] (subchronic (7 days) 18 mg/kg/day relative to the 0 dose), “increase in climbing”. Moreover, the swimming entry with BALB/cJ mice [3] (chronic 10 and 18 mg/kg/day, compared to 0 and 25 mg/kg/day) is given as “increases in swimming”; with BALB/cJ mice [3] (subchronic (7 days) fluoxetine), “no effect”. Further, the immobility result with BALB/cJ mice [3] (chronic fluoxetine) is “No significant effects”; with BALB/cJ mice [3] (subchronic (7 days) fluoxetine), “no effect”; with BALB/cJ mice [5], “reduces immobility acutely”. Moreover, in data set [4], the “range of plasma levels found in patients” value is 100 to 700 ng/mL. Also, the “intracranial self-stimulation reward thresholds” value in the data set with animals was “no effect”.
